Measurements taken from patent US20210369846A1 (priority 2018, published 2021).
Several values for one entry are separate records, joined by “and”; a condition that tells them apart may be missing. Equal entries are not always repeated. Entries after “also recorded” stand apart in the source; their conditions may differ. Marks after values point to notes of the source that are not given here.

Tests used:
[1] = Particle size distribution of O/W emulsions with Accusizer 780 Optical Particle Sizer; assay type: physicochemical; conditions: O/W emulsion; footnote c: measured with Accusizer 780 Optical Particle Sizer
Protocol: In an exemplary method of preparation, 180 mg of the surfactant was dissolved in 9 mL of ultrapure water (MilliQ), then 1 mL of Perfluorodecalin was added to the solution. The mixture was sonicated using an UP400St Hielscher ultrasonic homogenizer. Operation parameters of the device: A=90% (amplitude), continuous operation mode, sonotrode type—H14. The process of ultrasonic homogenization was carried out for about 2 minutes, while the reaction vessel was intensely cooled using an ice bath. 10 mL of the o/w emulsion with 10% v/v of the perfluorinated phase relative to the aqueous phase was obtained. As can be appreciated, this method is merely exemplary, and other methods or preparation approaches may be used.
The emulsion particle size distribution was determined using the Accusizer 780 Optical Particle Sizer PSS NICOMP device. A series of dilutions of the analyzed emulsion were prepared: 10-fold, 100-fold and 1000-fold with ultrapure water (MilliQ), in triplicate. The particle size distribution of the 1000-fold diluted emulsion was examined, a minimum of 3 measurements were taken, preparing approximately 30 mL of the diluted emulsion for each one of them. The results were presented by the several values: the average diameter (given in μm), and the percentage number of particles in different ranges (for example, in the diameter range 0.5-2 μm, 2-5 μm, 5-10 μm, >10 μm). The values from these three measurements were averaged and standard deviation was calculated.

[2] = test system: HMEC-1 human vascular endothelial cells
male Sprague Dawley rats = experiment: Red blood cells substitute in vivo test: gradual bleeding with compensation in rats under general anaesthesia; parameters: species or system rat; conditions: for Amount of 5-min intervals (duration until cardiac cessation, per rat): exchange of 5% of blood volume per interval; for Amount of 5-min intervals (duration until cardiac cessation, per rat) / Amount of 5-min intervals expressed in min (per rat): individual rats; for Systolic blood pressure was >40 mm Hg for: tail cuff; for pH maintained at 7.3 up to: venous blood; for Hematocrit at the end of the experiment: gradual decrease from physiological values
Protocol: The study protocol was approved by the Local Ethical Committee (No. WAW2/057/2018), Warsaw University of Life Sciences, Warsaw, Poland. Study was carried out by the Department of Large Animal Diseases with the Clinic of the Faculty of Veterinary Medicine of the Warsaw University of Life Sciences in Warsaw. The study involved male Sprague Dawley rats (n=19; weight, 400±20 g; age, 8 to 12 weeks) obtained from the Mossakowski Medical Research Centre, Polish Academy of Sciences (Warsaw, Poland) divided into 4 non-equal groups (table below). The animals were kept in accordance with national animal welfare guidelines.
12 h before the experiment, feedstuffs were removed from animals' cages without restrictions to the water. Animals were weighted for circulating blood volume calculation according to Lee and Blaufox (1985) and anesthetized by intramuscular injection of the mixture of Ceptor—0.1 mL (Scanvet), Butomidor—0.1 mL (Richter Pharma AG) and Bioketan—0.1 mL (Vetoquinol). Within 2 min after injection, animals were placed in the dorsal position, on Thermo-Controlled Surgery Platform (Braintree Scientific, USA) and the catheter for blood collection was implanted.
A silicone catheter (Scientific Commodities INC, USA) was inserted into the left common jugular vein towards the heart and fastened with a tie (non-absorbable twisted strand, 4-0) for best fluid delivery and blood sampling. The catheter was kept filled with Ringer's fluid between the blood removals. The catheter's patency was maintained without the use of anti-clotting agents. The skin was not stitched, a swab moistened with saline solution was applied to the wound. Then the rats were transferred to a GN 1/1 electric heating plate (temp. 37±1° C., Bartscher, Poland), where a cuff was applied to the rat's tail to measure bloodless tail blood pressure (MLT125R, ADI, Australia), connected to the system NIBP (Non-Invasive Blood Pressure, ADI, Australia) and eight-channel PowerLab (ADI, Australia) and PC. Throughout the experiment, pulse and blood pressure were recorded in the Chart program (ADI, Australia). During the entire experiment, systolic and mean arterial blood readings were taken up to a blood pressure systolic threshold reading of 40 mm Hg between blood collections.
A total of 4 experiment variants were performed, as in the table above, using the method of gradual bleeding with compensation described in the previous experiment (5% of circulating blood). Compensations were used in subsequent experiments: Voluven fluid (Hydroxyethyl starch (HES 130/0.4), dextran 130 kDa, Fresenius Kabi) and formulations 2j3c, 2j3e and 2l3e (NanoSanguis) administered in Voluven fluid (concentration 0.5% w/v).
In venous blood samples, blood gas determinations (Siemens EPOC gasometer) were performed: pH, pCO2 (CO2 pressure, mm Hg), pO2 (oxygen pressure, mm Hg), cHCO3-(bicarbonate ion concentration, mmol/L), BE (ecf) (deficiency in blood buffering bases, mmol/L), hematocrit (Hct, %, less precise measurement than in a morphology analyzer), glucose (mg/dL), lactate (Lac, mmol/L), creatinine (Crea, mg/dL) followed by morphology (Mindray analyzer): hematocrit (hct, %), hemoglobin (g/L), red blood cell count (RBC, 10^12/L), white blood cell count (WBC, ×10^9/L) and platelet count (PLT, ×10^9/L). […] The results are given in the attached Excel spreadsheet. Blood for other biochemical analyses was centrifuged and frozen (−20° C.). Collected organ (liver, kidney, lung and heart) samples were fixed in buffered formalin, and after 48 hours. transferred to 70% ethyl alcohol and stored for histological examination. Histological examination was performed after routine staining of the hematoxylin and eosin sections.

[3] = test system: L929 and HMEC-1 cell lines

## O=C([O-])CCC(=O)OCCC(F)(F)C(F)(F)C(F)(F)C(F)(F)C(F)(F)C(F)(F)C(F)(F)C(F)(F)F.[K+] [2jK]
[1]
  Average diameter: 1090 ± 10 ^c nm
L929 mouse fibroblasts
  Maximum Non-Cytotoxic Concentration L929: <0.25%
blood
  Maximum Non-Hemolytic Concentration: >2.00%
[2]
  Maximum Non-Cytotoxic Concentration HMEC-1: 0.5%

## O=C(O)CCCC(=O)OCCC(F)(F)C(F)(F)C(F)(F)C(F)(F)C(F)(F)C(F)(F)C(F)(F)C(F)(F)F [2l3e]
L929 mouse fibroblasts
  Maximum Non-Cytotoxic Concentration L929: >2.00%
blood
  Maximum Non-Hemolytic Concentration: >2.00%
[2]
  Maximum Non-Cytotoxic Concentration HMEC-1: >2.00%
Male Sprague Dawley rats; 0.5% w/v in Voluven
  Survival of rats higher compared to the control group receiving Voluven: 10 intervals
  Amount of 5-min intervals (duration until cardiac cessation, per rat): 10 5-min intervals and 13 5-min intervals and 21 5-min intervals and 28 5-min intervals and 31 5-min intervals
  Amount of 5-min intervals expressed in min (per rat): 155 min and 60 min and 75 min and 105 min and 140 min
  Systolic blood pressure was >40 mm Hg for: 18-22 intervals
  pH maintained at 7.3 up to: 20-21 intervals
Male Sprague Dawley rats; control: Voluven
  Change caused slower in comparison to the control group: pH decrease; also recorded: increase in pCO2; also recorded: decrease in buffer base deficiency; also recorded: increase of lactate and creatinine

## O=C([O-])CCC(=O)OCCC(F)(F)C(F)(F)C(F)(F)C(F)(F)C(F)(F)C(F)(F)F.[K+] [2iK]
[1]
  Average diameter: 880 ± 40 ^c nm
L929 mouse fibroblasts
  Maximum Non-Cytotoxic Concentration L929: <0.25** %
blood
  Maximum Non-Hemolytic Concentration: 0.02%
[2]
  Maximum Non-Cytotoxic Concentration HMEC-1: 0.25%

## O=C([O-])CSCCC(F)(F)C(F)(F)C(F)(F)C(F)(F)C(F)(F)C(F)(F)C(F)(F)C(F)(F)F.[Na+] [2cNa]
[1]
  Average diameter: 710 ± 20 ^c nm
L929 mouse fibroblasts
  Maximum Non-Cytotoxic Concentration L929: 1%
blood
  Maximum Non-Hemolytic Concentration: 0.5%
[2]
  Maximum Non-Cytotoxic Concentration HMEC-1: 0.2%

## O=C(O)CCC(=O)OCCC(F)(F)C(F)(F)C(F)(F)C(F)(F)C(F)(F)C(F)(F)C(F)(F)C(F)(F)F [2j3e]
L929 mouse fibroblasts
  Maximum Non-Cytotoxic Concentration L929: 0.5%
blood
  Maximum Non-Hemolytic Concentration: 1%
[2]
  Maximum Non-Cytotoxic Concentration HMEC-1: 0.5%
Male Sprague Dawley rats; 0.5% w/v in Voluven
  Buffer balance deficiency (Be (ecf)) occurred at: 14-19 intervals
  Lactate concentration above physiological values (limit 8.5 mmol/L) occurred at intervals: 13-19 intervals
  Survival of rats higher compared to the control group receiving Voluven: 8 intervals
  Amount of 5-min intervals (duration until cardiac cessation, per rat): 15 5-min intervals and 17 5-min intervals and 21 5-min intervals and 25 5-min intervals and 29 5-min intervals
  Hematocrit at the end of the experiment: about 5%
  Amount of 5-min intervals expressed in min (per rat): 145 min and 75 min and 85 min and 105 min and 125 min
  pH maintained at 7.3 up to: 13 intervals and 20 intervals
Male Sprague Dawley rats; limit 40 mm Hg
  Maintaining systolic pressure above the limit, comparing to other test groups: longer

## O=C(O)CCCC(=O)OCCC(F)(F)C(F)(F)C(F)(F)C(F)(F)C(F)(F)C(F)(F)C(F)(F)C(F)(F)F [2l3k]
L929 mouse fibroblasts
  Maximum Non-Cytotoxic Concentration L929: >1.00%
[3]
  Cytotoxic potential: low cytotoxic potential
blood
  Maximum Non-Hemolytic Concentration: >2.00%
[2]
  Maximum Non-Cytotoxic Concentration HMEC-1: >1.00%

## O=C(O)CSCCC(F)(F)C(F)(F)C(F)(F)C(F)(F)C(F)(F)C(F)(F)C(F)(F)C(F)(F)F [2a3d]
[1]
  Average diameter: 640 ± 10 ^c nm
L929 mouse fibroblasts
  Maximum Non-Cytotoxic Concentration L929: 0.2%
blood
  Maximum Non-Hemolytic Concentration: 0.02%
[2]
  Maximum Non-Cytotoxic Concentration HMEC-1: 0.1%

## O=C([O-])CSCCC(F)(F)C(F)(F)C(F)(F)C(F)(F)C(F)(F)C(F)(F)C(F)(F)C(F)(F)F.[K+] [2aK]
[1]
  Average diameter: 770 ± 20 ^c nm
L929 mouse fibroblasts
  Maximum Non-Cytotoxic Concentration L929: 1%
blood
  Maximum Non-Hemolytic Concentration: >2.00%
[2]
  Maximum Non-Cytotoxic Concentration HMEC-1: 1%

## O=C([O-])CCC(=O)OCCC(F)(F)C(F)(F)C(F)(F)C(F)(F)C(F)(F)C(F)(F)C(F)(F)C(F)(F)F.[Na+] [2jNa]
[1]
  Average diameter: 820 ± 20 ^c nm
L929 mouse fibroblasts
  Maximum Non-Cytotoxic Concentration L929: <0.25%
blood
  Maximum Non-Hemolytic Concentration: 1%
[2]
  Maximum Non-Cytotoxic Concentration HMEC-1: 0.5%

## O=C(O)CCC(=O)OCCC(F)(F)C(F)(F)C(F)(F)C(F)(F)C(F)(F)C(F)(F)C(F)(F)C(F)(F)F [2j3c]
L929 mouse fibroblasts
  Maximum Non-Cytotoxic Concentration L929: 0.25%
blood
  Maximum Non-Hemolytic Concentration: >2.00%
[2]
  Maximum Non-Cytotoxic Concentration HMEC-1: 0.5%
Male Sprague Dawley rats; 0.5% w/v in Voluven
  Lactate concentration above physiological values (limit 8.5 mmol/L) occurred at intervals: 15 intervals and 19 intervals
  RBC at the end of the experiment: ~2e+12 L⁻¹
  Survival of rats higher compared to the control group receiving Voluven: 7 intervals
  WBC at the end of the experiment: ~1e+09 L⁻¹
  Amount of 5-min intervals (duration until cardiac cessation, per rat): 24 5-min intervals and 23 5-min intervals and 18 5-min intervals (2×) and 11 5-min intervals
  Hematocrit at the end of the experiment: about 9%
  Amount of 5-min intervals expressed in min (per rat): 55 min and 120 min and 115 min and 90 min (2×)
  Systolic blood pressure was >40 mm Hg for: 12 intervals and 20 intervals
  pH maintained at 7.3 up to: 13 intervals and 17 intervals

## O=C(O)CSCCC(F)(F)C(F)(F)C(F)(F)C(F)(F)C(F)(F)C(F)(F)C(F)(F)C(F)(F)F [2a3b]
[1]
  Average diameter: 640 ± 10 ^c nm
L929 mouse fibroblasts
  Maximum Non-Cytotoxic Concentration L929: 0.5%
blood
  Maximum Non-Hemolytic Concentration: 0.25%
[2]
  Maximum Non-Cytotoxic Concentration HMEC-1: 0.5%
